Experiments:
Format in all cases: in vivo
[1] = system: barnyardgrass (Echinochloa crus-galli); experiment: Test A pre/postemergence
Outline: (§1)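 Soil: loam blended with sand. Formulation: non-phytotoxic solvent mixture with surfactant. Timing: preemergence soil spray plus concurrent postemergence spray (plants 2–10 cm, 1–2 leaves). Readout: visual injury versus untreated controls at ~10 days, 0–100.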

[2] = system: crabgrass (Digitaria sanguinalis); experiment: Test A pre/postemergence
Outline: as §1

[3] = system: giant foxtail (Setaria faberi); experiment: Test A pre/postemergence
Outline: as §1

[4] = system: morningglory (Ipomoea spp.); experiment: Test A pre/postemergence
Outline: as §1

[5] = system: redroot pigweed (Amaranthus retroflexus); experiment: Test A pre/postemergence
Outline: as §1

[6] = system: velvetleaf (Abutilon theophrasti); experiment: Test A pre/postemergence
Outline: as §1

[7] = system: barnyardgrass (Echinochloa crus-galli); experiment: Test E flooded paddy water application; settings: Flood, 21 days, scale 0 to 100 (0 no effect, 100 complete control); for Plant response rating, Barnyardgrass: 16 g ai/ha
Outline: (§2)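 Greenhouse pots of Tama silt loam with weeds and rice at 2.0–2.5-leaf stage, flooded to 3 cm; compounds applied directly into paddy water, depth maintained. Visual rating versus untreated controls after 21 days, 0 (no effect) to 100 (complete control); 29.5/26.7 °C, 16-h photoperiod.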

[8] = system: bearded (brdd.) sprangletop (Leptochloa fusca ssp. fascicularis); experiment: Test E flooded paddy water application; settings: Flood, 21 days, scale 0 to 100 (0 no effect, 100 complete control); for Plant response rating, Sprangletop, Brdd.: 16 g ai/ha
Outline: as §2

[9] = system: ducksalad (Heteranthera limosa); experiment: Test E flooded paddy water application; settings: Flood, 21 days, scale 0 to 100 (0 no effect, 100 complete control); for Plant response rating, Ducksalad: 16 g ai/ha
Outline: as §2

[10] = system: early watergrass (Echinochloa oryzoides); experiment: Test E flooded paddy water application; settings: Flood, 21 days, scale 0 to 100 (0 no effect, 100 complete control); for Plant response rating, Watergrass, Early: 16 g ai/ha
Outline: as §2

[11] = system: junglerice (Echinochloa colona); experiment: Test E flooded paddy water application; settings: Flood, 21 days, scale 0 to 100 (0 no effect, 100 complete control); for Plant response rating, Junglerice: 16 g ai/ha
Outline: as §2

[12] = system: late watergrass (Echinochloa oryzicola); experiment: Test E flooded paddy water application; settings: Flood, 21 days, scale 0 to 100 (0 no effect, 100 complete control); for Plant response rating, Watergrass, Late: 16 g ai/ha
Outline: as §2

[13] = system: purple redstem (Ammannia coccinea); experiment: Test E flooded paddy water application; settings: Flood, 21 days, scale 0 to 100 (0 no effect, 100 complete control); for Plant response rating, Redstem: 16 g ai/ha
Outline: as §2

[14] = system: rice flatsedge (Cyperus iria); experiment: Test E flooded paddy water application; settings: Flood, 21 days, scale 0 to 100 (0 no effect, 100 complete control); for Plant response rating, Flatsedge, Rice: 16 g ai/ha
Outline: as §2

[15] = system: smallflower umbrella sedge (Cyperus difformis); experiment: Test E flooded paddy water application; settings: Flood, 21 days, scale 0 to 100 (0 no effect, 100 complete control); for Plant response rating, Sedge, Umbrella: 16 g ai/ha
Outline: as §2

[16] = system: transplanted rice seedlings (Oryza sativa cv. ‘Japonica-M202’); experiment: Test E flooded paddy water application; settings: Flood, 21 days, scale 0 to 100 (0 no effect, 100 complete control); for Plant response rating, Rice, Transplanted: 16 g ai/ha
Outline: as §2

[17] = system: water seeded rice seedlings (Oryza sativa cv. ‘Japonica-M202’); experiment: Test E flooded paddy water application; settings: Flood, 21 days, scale 0 to 100 (0 no effect, 100 complete control); for Plant response rating, Rice, Water Seeded: 16 g ai/ha
Outline: as §2

[18] = Postemergence, 125 g ai/ha, 0 to 100 scale (0 no effect, 100 complete control)
[19] = Postemergence, 500 g ai/ha, 0 to 100 scale (0 no effect, 100 complete control)
[20] = Preemergence, 125 g ai/ha, 0 to 100 scale where 0 is no effect and 100 is complete control, approximately ten days
[21] = Preemergence, 500 g ai/ha, 0 to 100 scale where 0 is no effect and 100 is complete control, approximately ten days

CCOC(=O)c1nc(-c2ccc(OC)cc2)nc(N)c1Cl [Compound 98]
Plant response rating, Barnyardgrass [1, 18]: 0 | Plant response rating, Barnyardgrass [1, 19]: 20 | Plant response rating, Barnyardgrass [1, 20]: 0 | Plant response rating, Barnyardgrass [1, 21]: 0 | Plant response rating, Crabgrass [2, 18]: 0 | Plant response rating, Crabgrass [2, 19]: 10 | Plant response rating, Crabgrass [2, 20]: 0 | Plant response rating, Crabgrass [2, 21]: 15 | Plant response rating, Foxtail, Giant [3, 18]: 0 | Plant response rating, Foxtail, Giant [3, 19]: 15 | Plant response rating, Foxtail, Giant [3, 20]: 0 | Plant response rating, Foxtail, Giant [3, 21]: 0 | Plant response rating, Morningglory [4, 18]: 0 | Plant response rating, Morningglory [4, 19]: 0 | Plant response rating, Morningglory [4, 20]: 0 | Plant response rating, Morningglory [4, 21]: 0 | Plant response rating, Pigweed [5, 18]: 5 | Plant response rating, Pigweed [5, 19]: 15 | Plant response rating, Pigweed [5, 20]: 0 | Plant response rating, Pigweed [5, 21]: 0 | Plant response rating, Velvetleaf [6, 18]: 35 | Plant response rating, Velvetleaf [6, 19]: 45 | Plant response rating, Velvetleaf [6, 20]: 0 | Plant response rating, Velvetleaf [6, 21]: 5 | Barnyardgrass plant response rating ([7]; 32 g ai/ha): 0 | Barnyardgrass plant response rating ([7]; 64 g ai/ha): 0 | Barnyardgrass plant response rating ([7]; 125 g ai/ha): 0 | Barnyardgrass plant response rating ([7]; 250 g ai/ha): 0 | Plant response rating, Barnyardgrass [7]: 0 | Sprangletop, Brdd. plant response rating ([8]; 32 g ai/ha): 0 | Sprangletop, Brdd. plant response rating ([8]; 64 g ai/ha): 0 | Sprangletop, Brdd. plant response rating ([8]; 125 g ai/ha): 0 | Sprangletop, Brdd. plant response rating ([8]; 250 g ai/ha): 0 | Plant response rating, Sprangletop, Brdd. [8]: 0 | Ducksalad plant response rating ([9]; 32 g ai/ha): 100 | Ducksalad plant response rating ([9]; 64 g ai/ha): 100 | Ducksalad plant response rating ([9]; 125 g ai/ha): 100 | Ducksalad plant response rating ([9]; 250 g ai/ha): 100 | Plant response rating, Ducksalad [9]: 0 | Watergrass, Early plant response rating ([10]; 32 g ai/ha): 0 | Watergrass, Early plant response rating ([10]; 64 g ai/ha): 0 | Watergrass, Early plant response rating ([10]; 125 g ai/ha): 0 | Watergrass, Early plant response rating ([10]; 250 g ai/ha): 0 | Plant response rating, Watergrass, Early [10]: 0 | Junglerice plant response rating ([11]; 32 g ai/ha): 0 | Junglerice plant response rating ([11]; 64 g ai/ha): 0 | Junglerice plant response rating ([11]; 125 g ai/ha): 0 | Junglerice plant response rating ([11]; 250 g ai/ha): 0 | Plant response rating, Junglerice [11]: 0 | Watergrass, Late plant response rating ([12]; 32 g ai/ha): 0 | Watergrass, Late plant response rating ([12]; 64 g ai/ha): 0 | Watergrass, Late plant response rating ([12]; 125 g ai/ha): 0 | Watergrass, Late plant response rating ([12]; 250 g ai/ha): 0 | Plant response rating, Watergrass, Late [12]: 0 | Redstem plant response rating ([13]; 32 g ai/ha): 0 | Redstem plant response rating ([13]; 64 g ai/ha): 0 | Redstem plant response rating ([13]; 125 g ai/ha): 40 | Redstem plant response rating ([13]; 250 g ai/ha): 40 | Plant response rating, Redstem [13]: 0 | Flatsedge, Rice plant response rating ([14]; 32 g ai/ha): 80 | Flatsedge, Rice plant response rating ([14]; 64 g ai/ha): 100 | Flatsedge, Rice plant response rating ([14]; 125 g ai/ha): 100 | Flatsedge, Rice plant response rating ([14]; 250 g ai/ha): 100 | Plant response rating, Flatsedge, Rice [14]: 80 | Sedge, Umbrella plant response rating ([15]; 32 g ai/ha): 60 | Sedge, Umbrella plant response rating ([15]; 64 g ai/ha): 60 | Sedge, Umbrella plant response rating ([15]; 125 g ai/ha): 60 | Sedge, Umbrella plant response rating ([15]; 250 g ai/ha): 60 | Plant response rating, Sedge, Umbrella [15]: 60 | Rice, Transplanted plant response rating ([16]; 32 g ai/ha): 0 | Rice, Transplanted plant response rating ([16]; 64 g ai/ha): 0 | Rice, Transplanted plant response rating ([16]; 125 g ai/ha): 0 | Rice, Transplanted plant response rating ([16]; 250 g ai/ha): 0 | Plant response rating, Rice, Transplanted [16]: 0 | Rice, Water Seeded plant response rating ([17]; 32 g ai/ha): 0 | Rice, Water Seeded plant response rating ([17]; 64 g ai/ha): 0 | Rice, Water Seeded plant response rating ([17]; 125 g ai/ha): 0 | Rice, Water Seeded plant response rating ([17]; 250 g ai/ha): 0 | Plant response rating, Rice, Water Seeded [17]: 0

CNc1nc(-c2ccc(Cl)cc2)nc(C(=O)OC)c1Cl [Compound 111]
Plant response rating, Barnyardgrass [1, 18]: 0 | Plant response rating, Barnyardgrass [1, 19]: 10 | Plant response rating, Barnyardgrass [1, 20]: 0 | Plant response rating, Barnyardgrass [1, 21]: 0 | Plant response rating, Crabgrass [2, 18]: 5 | Plant response rating, Crabgrass [2, 19]: 30 | Plant response rating, Crabgrass [2, 20]: 0 | Plant response rating, Crabgrass [2, 21]: 0 | Plant response rating, Foxtail, Giant [3, 18]: 0 | Plant response rating, Foxtail, Giant [3, 19]: 0 | Plant response rating, Foxtail, Giant [3, 20]: 0 | Plant response rating, Foxtail, Giant [3, 21]: 0 | Plant response rating, Morningglory [4, 18]: 20 | Plant response rating, Morningglory [4, 19]: 50 | Plant response rating, Morningglory [4, 20]: 0 | Plant response rating, Morningglory [4, 21]: 0 | Plant response rating, Pigweed [5, 18]: 55 | Plant response rating, Pigweed [5, 19]: 85 | Plant response rating, Pigweed [5, 20]: 0 | Plant response rating, Pigweed [5, 21]: 0 | Plant response rating, Velvetleaf [6, 18]: 75 | Plant response rating, Velvetleaf [6, 19]: 85 | Plant response rating, Velvetleaf [6, 20]: 0 | Plant response rating, Velvetleaf [6, 21]: 0 | Barnyardgrass plant response rating ([7]; 32 g ai/ha): 0 | Barnyardgrass plant response rating ([7]; 64 g ai/ha): 0 | Barnyardgrass plant response rating ([7]; 125 g ai/ha): 0 | Barnyardgrass plant response rating ([7]; 250 g ai/ha): 0 | Plant response rating, Barnyardgrass [7]: 0 | Sprangletop, Brdd. plant response rating ([8]; 32 g ai/ha): 0 | Sprangletop, Brdd. plant response rating ([8]; 64 g ai/ha): 0 | Sprangletop, Brdd. plant response rating ([8]; 125 g ai/ha): 0 | Sprangletop, Brdd. plant response rating ([8]; 250 g ai/ha): 0 | Plant response rating, Sprangletop, Brdd. [8]: 0 | Ducksalad plant response rating ([9]; 32 g ai/ha): 0 | Ducksalad plant response rating ([9]; 64 g ai/ha): 85 | Ducksalad plant response rating ([9]; 125 g ai/ha): 100 | Ducksalad plant response rating ([9]; 250 g ai/ha): 100 | Plant response rating, Ducksalad [9]: 0 | Watergrass, Early plant response rating ([10]; 32 g ai/ha): 0 | Watergrass, Early plant response rating ([10]; 64 g ai/ha): 0 | Watergrass, Early plant response rating ([10]; 125 g ai/ha): 0 | Watergrass, Early plant response rating ([10]; 250 g ai/ha): 0 | Plant response rating, Watergrass, Early [10]: 0 | Junglerice plant response rating ([11]; 32 g ai/ha): 0 | Junglerice plant response rating ([11]; 64 g ai/ha): 0 | Junglerice plant response rating ([11]; 125 g ai/ha): 0 | Junglerice plant response rating ([11]; 250 g ai/ha): 0 | Plant response rating, Junglerice [11]: 0 | Watergrass, Late plant response rating ([12]; 32 g ai/ha): 0 | Watergrass, Late plant response rating ([12]; 64 g ai/ha): 0 | Watergrass, Late plant response rating ([12]; 125 g ai/ha): 0 | Watergrass, Late plant response rating ([12]; 250 g ai/ha): 0 | Plant response rating, Watergrass, Late [12]: 0 | Redstem plant response rating ([13]; 32 g ai/ha): 20 | Redstem plant response rating ([13]; 64 g ai/ha): 30 | Redstem plant response rating ([13]; 125 g ai/ha): 30 | Redstem plant response rating ([13]; 250 g ai/ha): 75 | Plant response rating, Redstem [13]: 0 | Flatsedge, Rice plant response rating ([14]; 32 g ai/ha): 0 | Flatsedge, Rice plant response rating ([14]; 64 g ai/ha): 0 | Flatsedge, Rice plant response rating ([14]; 125 g ai/ha): 0 | Flatsedge, Rice plant response rating ([14]; 250 g ai/ha): 0 | Plant response rating, Flatsedge, Rice [14]: 0 | Sedge, Umbrella plant response rating ([15]; 32 g ai/ha): 0 | Sedge, Umbrella plant response rating ([15]; 64 g ai/ha): 0 | Sedge, Umbrella plant response rating ([15]; 125 g ai/ha): 0 | Sedge, Umbrella plant response rating ([15]; 250 g ai/ha): 75 | Plant response rating, Sedge, Umbrella [15]: 0 | Rice, Transplanted plant response rating ([16]; 32 g ai/ha): 0 | Rice, Transplanted plant response rating ([16]; 64 g ai/ha): 0 | Rice, Transplanted plant response rating ([16]; 125 g ai/ha): 0 | Rice, Transplanted plant response rating ([16]; 250 g ai/ha): 0 | Plant response rating, Rice, Transplanted [16]: 0 | Rice, Water Seeded plant response rating ([17]; 32 g ai/ha): 0 | Rice, Water Seeded plant response rating ([17]; 64 g ai/ha): 0 | Rice, Water Seeded plant response rating ([17]; 125 g ai/ha): 0 | Rice, Water Seeded plant response rating ([17]; 250 g ai/ha): 0 | Plant response rating, Rice, Water Seeded [17]: 0

— patent US8802597B2, “Herbicidal pyrimidines” (E I du Pont de Nemours and Company, priority 2003, dated 2014)
